In US6699834B1, “Method for treating cancer” (University of Maryland Biotechnology Institute, priority 1997, dated 2004):
Bridge positions count the residues as written; N and C are the ends. Ends that are not written are not given here.

Assays:
[1] = test system: KS Y-1 and KS-SLK cells; assay: Kaposi's Sarcoma clonogenic assay in cultured cells; format: cell-based, human; settings: for inhibition of KS cell growth in clonogenic assays (in words): KS Y-1 and KS SLK; for KS in vitro: inhibition of Kaposi's Sarcoma cell growth in vitro in cultured cells
Procedure: Briefly, the KS Y-1 cells were obtained from mononuclear cells isolated from pleural effusion of an AIDS patient with KS in the lungs. After the depletion of T lymphocytes, monocytes/macrophages and fibroblasts using monoclonal antibodies against CD2, CD3, CD4, CD8, CD10 and CD14 membrane antigens and baby rabbit complement, the cells were cultured in the absence of exogenous growth factors to select for transformed cells. […] Clonogenic assays were performed by seeding the KS Y-1 or KS-SLK cells in methylcellulose (0.8%, v/v), incubating the cells for 10 days in the presence or absence of the hCC, β-hCG or β-hCG peptide preparations and then counting the number of well-formed colonies of triplicate wells formed after seeding with 5×10^4 cells.
To assay for activity against Kaposi's sarcoma cell growth in vitro, the clonogenic assay described herein was used with the KS Y-1 and KS-SLK cultured Kaposi's Sarcoma cell lines,.

[2] = test system: HIV-1; settings: for HIV in vitro Inhibition: inhibition of HIV-1 replication in vitro (HIV-1 strains and HIV-1 primary isolates)
From the text: To prepare HIV infected cells for the in vitro assay of hCG preparations and β-hCG peptides and derivatives, primary PBMCs, macrophages, and CD4^+ T cells isolated from peripheral blood and the H9 human T cell line, were acutely or chronically infected with 8 different HIV-1 strains: 4 cell line adapted viruses, namely the macrophage tropic Ba-L strain (Gartner et al., 1986, Science 233:215-219) and the CD4^+ T cell tropic MN, RF, and IIIB strains (10^5 TCID50/ml) (Popovic et al., 1984, Science […]; Gallo et al.; 1984, Science 224:500-503); 2 isolates, Ju1083 and G3, from Nigerian AIDS patients passed once in a CD4^+ T cell line (Sub-T1); and 2 primary (“clinical”) isolates from AIDS patients from Trinidad which were never passed in any cell line and were used at a titer of 7.5×10^4TCID50/ml. In all experiments; HIV1 (10^5 TCID50/ml) was added to the cells(10^6 cells/ml) for a 2 hour incubation after which the virus infected cells were washed with 10 ml phosphate buffered saline (PBS) three times to eliminate extra cellular virus. The test inhibitor, i.e. the hCG or β-hCG peptide preparation was then added and the cells were incubated with the test inhibiter for 9 to 10 days with serial sampling. Cultures were assayed for p24 antigen on days 3 to 10.
Peptides of the α- and β-subunits (0.05 to 50 nmoles/ml), native α chain preparation, and various crude preparations of the native hCG heterodimer (0.01 to 1,000 IU) and the native β-hCG subunit (100 to 1,000 μg) were tested for effects on HIV-1 replication in acutely infected cells-by measuring change in viral antigen levels in response to the above noted preparations (FIGS. 4A-D and Table 3).
The fractions were then tested for anti-HIV, anti-KS and pro-hematopoietic activities in vitro. To assay for inhibition of HIV-1 replication in vitro, the HIV-1 […] viral strain was used to infect PBMCs and PM-1 cells (derived from the HUT-78 T-cell lymphoma cell line) at 10^3 TCID50/ml as described in detail herein.

[3] = test system: HIV RNA and protein expression; assay: HIV RNA and protein expression in HIV-1 transgenic mice; format: in vivo; settings: for HIV-1 gene / protein expression in transgenic mice (in words): pups dosed via mother's milk; for inhibition of HIV RNA and protein expression: inhibition of HIV RNA and protein expression in HIV-1 transgenic mice
From the text: The HIV-1 transgenic mice used for this study contain 7.4 kb of foreign DNA, including 5.1 kb of the HIV-1 proviral genome deleted in the gag and pol genes and 2.3 kb of vector (Dickie et al., 1991, Virology 185:109-119). […] In addition, these mice develop severe hyperkeratotic skin lesions with marked expression of gp 120 and nef genes (Kopp et al., 1993, AIDS Res. Hum. Retroviruses 9:267-275; Vasli et al., 1994, AIDS Res. Hum. Retroviruses 10:1241-1250).
Heterozygous transgenic mothers were treated with the hCG preparation subcutaneously twice weekly. Pups received hCG via the mother's milk.
Gene expression was assayed in total RNA extracted from the skin of Tg26 mice with RNAzol. One microgram of RNA was reverse transcribed into cDNA using random hexamer primers and […] reverse transcriptase (Life Technologies, MD) in a final volume of 30 μl. One tenth of the cDNA reactions were used for PCR amplification of various HIV gene sequences (env, tat, rev, nef and vif). In addition, glyceraldehyde 3-phosphate dehydrogenase (GAPHD) mRNA was amplified for each sample for normalization. Following 25 cycles of amplification, 10% of the PCR product was resolved by electrophoresis through 2% agarose gels and processed for Southern hybridization using FITC-labeled oligonucleotide probes complimentary to internal sequences of the amplicons. Detection was performed by chemiluminescence (Amersham) and relative mRNA levels determined by densitometry after normalization with GAPDH mRNA levels.
Finally, certain fractions were tested for their ability to increase survival, promote weight gain and reduce HIV-1 gene expression in HIV-1 transgenic mice as described herein.

[4] = test system: Kaposi's Sarcoma induced in mice; assay: Kaposi's Sarcoma tumors induced in mice by KS Y-1 cells; format: in vivo; settings: for KS in vivo: inhibition of Kaposi's Sarcoma induced in mice; for effect on KS tumors in mice (in words): mouse, in vivo
Procedure: The effects of the peptides on KS tumor cells were also evaluated in vivo in the KS mouse model. To induce KS tumors in the mice, 1×10^6/ml KS Y-1 cells in 50 μl PBS or saline were injected subcutaneously into immunodeficient mice (beige-XID-BNX mice). […] Methods for detection of apoptosis (from tissue biopsies) were used, as described in Lunardi-Iskandar et al.(1995, Nature 375:64-68). Briefly, the samples were stained in situ for the presence of cells with DNA fragmentation. Tissue slides from formalin-fixed tumors were treated with terminal deoxynucleotide transferase for extension of DNA ends (hydroxyl 3′) and incorporation of digoxigenin-11-dUTP according to the manufacturer's instructions (Oncor, Gaithersburg, Md.). Anti-digoxigenin antibody conjugated with the enzyme peroxidase allowed detection of apoptotic cells, which stain brown, whereas viable cells stain blue.
Certain fractions were tested for activity in reducing Kaposi's Sarcoma lesions in the Kaposi's Sarcoma mouse model as described herein. In this assay, starting one week after injection of the KS Y-1 cells to induce Kaposi's sarcoma formation, the mice were injected subcutaneously with 100 IU hCG. […] After one week of the week of treatment with the hCG fractions, the KS lesions were examined for cell apoptosis and regression as described herein.
Certain fractions of the APL™ hCG and early pregnancy urine were assayed for their ability to elicit apoptosis in Kaposi's Sarcoma lesions induced by injection of KS Y-1 cells in mice (n=3 mice for each treatment). The mice were administered 100 μl subcutaneously of the particular fraction each day for one week.

[5] = test system: hematopoietic progenitor cells; assay: Hematopoietic progenitor clonogenic assays (CFU-GEMM, BFU-e, CFU-GM); format: cell-based, human; settings: for Pro-hematopoiesis in vitro Enhancement: relative increase of hematopoietic colony cell number, hCG preparations 200 IU/ml, subunits and peptides 100 μg/ml
Procedure: The effect of hCG preparations and peptides was assayed on hematopoietic progenitor cells in vitro: Hematopoietic progenitor cells (2×10^5 cell/ml) were isolated from normal bone marrow and cord blood and seeded in methylcellulose. […] The hCG preparations were administered at 200 IU/ml and the β- and α-subunits and peptides were administered at 100 μg/ml. The native commercial preparation of hCG (APL™, Wyeth Ayerst) was pre-tested for anti-HIV and anti-KS activities. Aggregates containing more than 50 cells after 10 days of culture were counted as colonies.

Row | Substance | inhibition of KS cell growth in clonogenic assays (in words) [1] | KS in vitro [1] | inhibition of HIV-1 infection/replication in vitro (in words) [2] | HIV in vitro Inhibition [2] | HIV-1 gene / protein expression in transgenic mice (in words) [3] | KS in vivo [4] | Pro-hematopoiesis in vitro Enhancement [5] | effect on KS tumors in mice (in words) [4] | promotion of hematopoiesis (in words) [5] | inhibition of HIV RNA and protein expression [3]
1 | CVAQPGPQVLLVLC (cysteine pairing not given here) [11. Scrambled 45-57] | exhibited activity | ++ (“++” represents greater than 40% effect) | inhibitory effect | ++ (“++” represents greater than 40% effect) | some inhibition | – | – | – | – | –
2 | 9. 38-57: β-hCG amino acids 38-57 (CPTMTRVLQGVLPALPQVVC; UniProt P0DN86 58-77, looked up, fragment) | – | − (“−” represents less than 10% effect) | – | − (“−” represents less than 10% effect) | – | − (“−” represents less than 10% effect) | − (“−” represents less than 10% effect) | – | – | –
3 | 47-55: β-hCG amino acids 47-55 (SEQ ID NO:20) (GVLPALPQV) | – | – | inhibited HIV-1 replication | – | elicited inhibition | – | – | some anti-KS activity | pro-hematopoietic effect | –
4 | 30. 37-55: β-hCG amino acids 37-55 as printed; probably 47-55 (YCPTMTRVLQGVLPALPQV; UniProt P0DN86 57-75, looked up, fragment) | – | + (“+” represents greater than 15% effect) | – | + (“+” represents greater than 15% effect) | – | + (“+” represents greater than 15% effect) | + (“+” represents greater than 15% effect) | – | – | + (“+” represents greater than 15% effect)
5 | 5. 47-57::108-119: β-hCG 47-57 linked at the C-terminus to the N-terminus of 108-119 (SEQ ID NO:32) (GVLPALPQVVCLTCDDPRFQDSS) | strongest anti-tumor effects | ++ (“++” represents greater than 40% effect) | inhibit HIV-1 replication in vitro | ++ (“++” represents greater than 40% effect) | – | +++ (“+++” represents greater than 70% effect) | – | significant anti-KS activity | – | ++ (“++” represents greater than 40% effect)
6 | 1. 109-119: β-hCG amino acids 109-119 (SEQ ID NO:7) (TCDDPRFQDSS) | strongest anti-tumor effects | + (“+” represents greater than 15% effect) | inhibit HIV-1 replication in vitro | + (“+” represents greater than 15% effect) | – | + (“+” represents greater than 15% effect) | + (“+” represents greater than 15% effect) | some anti-KS activity | directly promoted | –
7 | Cys-Val-Ala-Gln-Gly-Val-Leu-Pro-Ala-Leu-Pro-Gln-Val-Val-Cys (CVAQGVLPALPQVVC; disulfide 1-15 (inferred)) [12. Scrambled circ. 44-57] | – | − (“−” represents less than 10% effect) | – | − (“−” represents less than 10% effect) | no inhibitory effect | – | − (“−” represents less than 10% effect) | – | – | –
8 | 2. 109-145: β-hCG amino acids 109-145 (SEQ ID NO:25) (TCDDPRFQDSSSSKAPPPSLPSPSRLPGPSDTPILPQ) | strongest anti-tumor effects | + (“+” represents greater than 15% effect) | inhibited HIV-1 replication | + (“+” represents greater than 15% effect) | – | + (“+” represents greater than 15% effect) | + (“+” represents greater than 15% effect) | some anti-KS activity | – | –
9 | 35. 1-15: α-hCG amino acids 1-15 (APDVQDCPECTLQEN; UniProt P01215 25-39, looked up, fragment) | – | − (“−” represents less than 10% effect) | – | – | – | − (“−” represents less than 10% effect) | − (“−” represents less than 10% effect) | – | – | –
10 | 32. 48-56: β-hCG amino acids 48-56 (SEQ ID NO:35) (VLPALPQVV) | – | + (“+” represents greater than 15% effect) | inhibited HIV-1 replication | + (“+” represents greater than 15% effect) | elicited inhibition | + (“+” represents greater than 15% effect) | + (“+” represents greater than 15% effect) | some anti-KS activity | pro-hematopoietic effect | + (“+” represents greater than 15% effect)
